pIC50: −log10 of the molar value.
Tested on: aggregation of the blood platelets brought about by PAF
Experiment: inhibition of PAF-triggered platelet aggregation in platelet-rich plasma (PRP), aggregometer
Type: cell-based
Settings: Oryctolagus cuniculus, rabbit PRP, 37° C., sub-maximum dosage of PAF (4 nM), test substance added 2 minutes before PAF
Protocol: Platelet-rich plasma (PRP) is prepared by centrifugation of rabbit blood containing 1/10 volumes of 90 mM trisodium citrate. The aggregation of the blood platelets is measured with the aid of an aggregometer at 37° C. while stirring. 2 minutes after the addition of the test sub- stance to the PRP the platelet aggregation is triggered off by a sub-maximum dosage of PAF (4 nM). The IC50 value (μM) given in the following Table corresponds to that concentration of the test substance which reduces to a half the aggregation of the blood platelets brought about by PAF.

CCCCCCCCCCCCCCCCCCOCC(COC(=O)OCC[N+]1(C)CCCCC1)OC (racemic) [Example 3, 1-[2-[[[(RS)-2-methoxy-3-(octadecyloxy)propoxy]carbonyl]oxy]ethyl]-1-methylpiperidinium chloride] was tested, and the pIC50 was 5.40.
Work on CCCCCCCCCCCCCCCCCCOC(=O)N(CC(COCCCC[N+](C)(C)C)OC(=O)NC)C(C)C (racemic) [Example 6, [4-[(RS)-3-[N-isopropyl(1-octadecyloxy)formamido]-2-[(methylcarbamoyl)oxy]propoxy]butyl]trimethylammonium bromide] yielded a pIC50 of 6.30.
Work on CCCCCCCCCCCCCCCCCCNC(=O)N(CC(COCCCC[n+]1ccsc1)OC(=O)NC)C(C)C (racemic) [Example 7, 3-[4-[(RS)-3-(1-isopropyl-3-octadecylureido)-2-[(methylcarbamoyl)oxy]propoxy]butyl]thiazolium bromide] yielded a pIC50 of 7.30.
Compound CCCCCCCCCCCCCCCCCCOC(=O)N(CC(COCCCC[n+]1ccsc1)OC(=O)OC)C(C)C (racemic) [Example 9, 3-[4-(RS)-3-(N-isopropyl-1-octadecyloxyformamido)-2-(methoxycarbonyloxy)propoxy]butyl]thiazolium bromide] has a pIC50 of 7.22.
CCCCCCCCCCCCCCCCCCOC(=O)NCC(COC(=O)CCC[N+](C)(C)C)OC(=O)NC (racemic) [Example 4, [3-[[(RS)-2-Methylcarbamoyloxy-3-[1-(octadecyloxy)formamido]propoxy]carbonyl]propyl]trimethylammonium chloride] gave a pIC50 of 5.74.
In the case of CCCCCCCCCCCCCCCCCCNC(=O)OCC(COC(=O)CCC[N+](C)(C)C)NC(=O)OC (racemic) [Example 2, [3-[[(RS)-2-(1-methoxyformamido)-3-(octadecylcarbamoyloxy)propoxy]carbonyl]propyl]trimethylammonium chloride], the pIC50 was 5.74.
CCCCCCCCCCCCCCCCCCOC(=O)N(CC(COCCCC[n+]1ccsc1)OC(=O)NC)C(C)C (racemic) [Example 5, 3-[4-[(RS)-3-[N-isopropyl-1-(octadecyloxy)formamido]-2-[(methylcarbamoyl)oxy]-propoxy]butyl]thiazolium bromide] showed a pIC50 of 7.40.
Compound CCCCCCCCCCCCCCCCCC(=O)OCC(COC(=O)CCC[N+](C)(C)C)NC(C)=O (racemic) [Example 1, [3-[[(RS)-2-acetamido-3-[octadecanoyloxy]propoxy]carbonyl]propyl]trimethylammonium chloride] has a pIC50 of 5.26.
Compound CCCCCCCCCCCCCCCCCCNC(=O)N(CC(COCCCCn1cc[n+](C)c1)OC(=O)NC)C(C)C (racemic) [Example 8, 1-[4-[(RS)-3-(1-isopropyl-3-octadecylureido)-2-[(methylcarbamoyl)oxy]propoxy]butyl]-3-methylimidazolium bromide] has a pIC50 of 6.40.
